From ChEMBL document CHEMBL3259703, “Synthesis and preliminary biological evaluation of 1,2,3-triazole-Jaspine B hybrids as potential cytotoxic agents” (Eur J Med Chem, 2014)
Each block holds one compound with its values, some of them ahead of it.

Columns and labels:
MGC-803 [1] = test: Antiproliferative activity against human MGC803 cells after 48 hrs by MTT assay; assay type: functional, cell-based; details: MGC-803, 48 h
MCF7 [2] = test: Antiproliferative activity against human MCF7 cells after 48 hrs by MTT assay; assay type: functional, cell-based; details: MCF7, 48 h
[3] = Antiproliferative activity against human EC9706 cells after 48 hrs by MTT assay; assay type: functional, cell-based; details: EC9706, 48 h
MCF7 [4] = test: Cell cycle arrest in human MCF7 cells assessed as accumulation at G2/M phase at 8 uM after 8 hrs using propidium iodide staining by flow cytometry (reference value: 19.35 %); assay type: functional
MCF7 [5] = test: Induction of apoptosis in human MCF7 cells assessed as early apoptotic cells at 4 uM after 8 hrs using Annexin V/PI double staining by flow cytometry (reference value: 8.2 %); assay type: functional
MCF7 [6] = test: Cell cycle arrest in human MCF7 cells assessed as accumulation at S phase at 4 uM after 16 hrs using propidium iodide staining by flow cytometry (reference value: 30.05 %); assay type: functional
MCF7 [7] = test: Cell cycle arrest in human MCF7 cells assessed as accumulation at S phase at 2 uM after 8 hrs using propidium iodide staining by flow cytometry (reference value: 33.03 %); assay type: functional
MCF7 [8] = test: Cell cycle arrest in human MCF7 cells assessed as accumulation at G2/M phase at 4 uM after 16 hrs using propidium iodide staining by flow cytometry (reference value: 20.08 %); assay type: functional
MCF7 [9] = test: Cell cycle arrest in human MCF7 cells assessed as accumulation at G0/G1 phase at 8 uM after 16 hrs using propidium iodide staining by flow cytometry (reference value: 46.01 %); assay type: functional
MCF7 [10] = test: Cell cycle arrest in human MCF7 cells assessed as accumulation at G0/G1 phase at 4 uM after 16 hrs using propidium iodide staining by flow cytometry (reference value: 46.01 %); assay type: functional
MCF7 [11] = test: Induction of apoptosis in human MCF7 cells assessed as late apoptotic cells at 2 uM after 16 hrs using Annexin V/PI double staining by flow cytometry (reference value: 0.7 %); assay type: functional
MCF7 [12] = test: Cell cycle arrest in human MCF7 cells assessed as accumulation at G0/G1 phase at 4 uM after 8 hrs using propidium iodide staining by flow cytometry (reference value: 47.36 %); assay type: functional
MCF7 [13] = test: Induction of apoptosis in human MCF7 cells assessed as viable cells at 4 uM after 16 hrs using Annexin V/PI double staining by flow cytometry (reference value: 87.5 %); assay type: functional; details: MCF7, 16 h, read-out: Activity
MCF7 [14] = test: Induction of apoptosis in human MCF7 cells assessed as necrotic cells at 8 uM after 8 hrs using Annexin V/PI double staining by flow cytometry (reference value: 0.6 %); assay type: functional
MCF7 [15] = test: Cell cycle arrest in human MCF7 cells assessed as accumulation at S phase at 4 uM after 8 hrs using propidium iodide staining by flow cytometry (reference value: 33.03 %); assay type: functional
MCF7 [16] = test: Induction of apoptosis in human MCF7 cells assessed as necrotic cells at 4 uM after 16 hrs using Annexin V/PI double staining by flow cytometry (reference value: 0.7 %); assay type: functional
MCF7 [17] = test: Induction of apoptosis in human MCF7 cells assessed as necrotic cells at 2 uM after 8 hrs using Annexin V/PI double staining by flow cytometry (reference value: 0.6 %); assay type: functional
MCF7 [18] = test: Induction of apoptosis in human MCF7 cells assessed as late apoptotic cells at 2 uM after 8 hrs using Annexin V/PI double staining by flow cytometry (reference value: 6.8 %); assay type: functional
MCF7 [19] = test: Cell cycle arrest in human MCF7 cells assessed as accumulation at S phase at 2 uM after 16 hrs using propidium iodide staining by flow cytometry (reference value: 30.05 %); assay type: functional
MCF7 [20] = test: Induction of apoptosis in human MCF7 cells assessed as early apoptotic cells at 4 uM after 16 hrs using Annexin V/PI double staining by flow cytometry (reference value: 11.1 %); assay type: functional
MCF7 [21] = test: Induction of apoptosis in human MCF7 cells assessed as late apoptotic cells at 4 uM after 16 hrs using Annexin V/PI double staining by flow cytometry (reference value: 0.7 %); assay type: functional
MCF7 [22] = test: Induction of apoptosis in human MCF7 cells assessed as late apoptotic cells at 8 uM after 16 hrs using Annexin V/PI double staining by flow cytometry (reference value: 0.7 %); assay type: functional
MCF7 [23] = test: Cell cycle arrest in human MCF7 cells assessed as accumulation at G2/M phase at 2 uM after 8 hrs using propidium iodide staining by flow cytometry (reference value: 19.35 %); assay type: functional
MCF7 [24] = test: Induction of apoptosis in human MCF7 cells assessed as viable cells at 4 uM after 8 hrs using Annexin V/PI double staining by flow cytometry (reference value: 84.3 %); assay type: functional; details: MCF7, 8 h, read-out: Activity
MCF7 [25] = test: Ratio of IC50 Jaspine B to compound IC50 for human MCF7 cells after 48 hrs by MTT assay; assay type: functional
MCF7 [26] = test: Induction of apoptosis in human MCF7 cells assessed as viable cells at 2 uM after 8 hrs using Annexin V/PI double staining by flow cytometry (reference value: 84.3 %); assay type: functional; details: MCF7, 8 h, read-out: Activity
MCF7 [27] = test: Induction of apoptosis in human MCF7 cells assessed as viable cells at 8 uM after 16 hrs using Annexin V/PI double staining by flow cytometry (reference value: 87.5 %); assay type: functional; details: MCF7, 16 h, read-out: Activity
MCF7 [28] = test: Cell cycle arrest in human MCF7 cells assessed as accumulation at G2/M phase at 4 uM after 8 hrs using propidium iodide staining by flow cytometry (reference value: 19.35 %); assay type: functional
MCF7 [29] = test: Cell cycle arrest in human MCF7 cells assessed as accumulation at S phase at 8 uM after 8 hrs using propidium iodide staining by flow cytometry (reference value: 33.03 %); assay type: functional
MCF7 [30] = test: Induction of apoptosis in human MCF7 cells assessed as early apoptotic cells at 8 uM after 8 hrs using Annexin V/PI double staining by flow cytometry (reference value: 8.2 %); assay type: functional
MCF7 [31] = test: Induction of apoptosis in human MCF7 cells assessed as early apoptotic cells at 8 uM after 16 hrs using Annexin V/PI double staining by flow cytometry (reference value: 11.1 %); assay type: functional
MCF7 [32] = test: Induction of apoptosis in human MCF7 cells assessed as necrotic cells at 2 uM after 16 hrs using Annexin V/PI double staining by flow cytometry (reference value: 0.7 %); assay type: functional
MCF7 [33] = test: Induction of apoptosis in human MCF7 cells assessed as necrotic cells at 4 uM after 8 hrs using Annexin V/PI double staining by flow cytometry (reference value: 0.6 %); assay type: functional
MCF7 [34] = test: Induction of apoptosis in human MCF7 cells assessed as late apoptotic cells at 4 uM after 8 hrs using Annexin V/PI double staining by flow cytometry (reference value: 6.8 %); assay type: functional
MCF7 [35] = test: Induction of apoptosis in human MCF7 cells assessed as viable cells at 2 uM after 16 hrs using Annexin V/PI double staining by flow cytometry (reference value: 87.5 %); assay type: functional; details: MCF7, 16 h, read-out: Activity
MGC-803 [36] = test: Ratio of IC50 Jaspine B to compound IC50 for human MGC803 cells after 48 hrs by MTT assay; assay type: functional
MCF7 [37] = test: Cell cycle arrest in human MCF7 cells assessed as accumulation at G0/G1 phase at 2 uM after 8 hrs using propidium iodide staining by flow cytometry (reference value: 47.36 %); assay type: functional
[38] = Ratio of IC50 Jaspine B to compound IC50 for human EC9706 cells after 48 hrs by MTT assay; assay type: functional
MCF7 [39] = test: Induction of apoptosis in human MCF7 cells assessed as early apoptotic cells at 2 uM after 16 hrs using Annexin V/PI double staining by flow cytometry (reference value: 11.1 %); assay type: functional
MCF7 [40] = test: Cell cycle arrest in human MCF7 cells assessed as accumulation at G0/G1 phase at 2 uM after 16 hrs using propidium iodide staining by flow cytometry (reference value: 46.01 %); assay type: functional
MCF7 [41] = test: Cell cycle arrest in human MCF7 cells assessed as accumulation at G2/M phase at 2 uM after 16 hrs using propidium iodide staining by flow cytometry (reference value: 20.08 %); assay type: functional
MCF7 [42] = test: Cell cycle arrest in human MCF7 cells assessed as accumulation at G2/M phase at 8 uM after 16 hrs using propidium iodide staining by flow cytometry (reference value: 20.08 %); assay type: functional
MCF7 [43] = test: Induction of apoptosis in human MCF7 cells assessed as viable cells at 8 uM after 8 hrs using Annexin V/PI double staining by flow cytometry (reference value: 84.3 %); assay type: functional; details: MCF7, 8 h, read-out: Activity
MCF7 [44] = test: Induction of apoptosis in human MCF7 cells assessed as late apoptotic cells at 8 uM after 8 hrs using Annexin V/PI double staining by flow cytometry (reference value: 6.8 %); assay type: functional
MCF7 [45] = test: Cell cycle arrest in human MCF7 cells assessed as accumulation at G0/G1 phase at 8 uM after 8 hrs using propidium iodide staining by flow cytometry (reference value: 47.36 %); assay type: functional
MCF7 [46] = test: Induction of apoptosis in human MCF7 cells assessed as early apoptotic cells at 2 uM after 8 hrs using Annexin V/PI double staining by flow cytometry (reference value: 8.2 %); assay type: functional
MCF7 [47] = test: Induction of apoptosis in human MCF7 cells assessed as necrotic cells at 8 uM after 16 hrs using Annexin V/PI double staining by flow cytometry (reference value: 0.7 %); assay type: functional
MCF7 [48] = test: Cell cycle arrest in human MCF7 cells assessed as accumulation at S phase at 8 uM after 16 hrs using propidium iodide staining by flow cytometry (reference value: 30.05 %); assay type: functional

Structure (SMILES): CCCCCCCCCn1cc(COC[C@@H]2OC[C@H](N)[C@H]2O)nn1
IC50 (MGC-803 [1]): > 128 µM
IC50 (MCF7 [2]): > 128 µM
IC50 [3]: > 128 µM

Structure (SMILES): CCCCCCCCCCn1cc(COC[C@@H]2OC[C@H](N)[C@H]2O)nn1
IC50 (MGC-803 [1]): 57.4 µM
IC50 (MCF7 [2]): 45 µM
IC50 [3]: 43.1 µM

Structure (SMILES): CCCCCCCCCCCCn1cc(COC[C@@H]2OC[C@H](N)[C@H]2O)nn1
IC50 (MGC-803 [1]): 115 µM
IC50 (MCF7 [2]): 2.62 µM
IC50 [3]: 93.8 µM

Structure (SMILES): CCCCCCCCCCCCCCCCn1cc(COC[C@@H]2OC[C@H](N)[C@@H]2O)nn1
IC50 (MGC-803 [1]): 27.9 µM
IC50 (MCF7 [2]): 3.3 µM
IC50 [3]: 20 µM

Structure (SMILES): CCCCCCCCCCCCn1cc(COC[C@@H]2OC[C@H](N)[C@@H]2O)nn1
IC50 (MGC-803 [1]): 21.4 µM
IC50 (MCF7 [2]): 2.21 µM
IC50 [3]: 16 µM

Compounds with a lower IC50 (MGC-803 [1]), results first:

IC50 (MGC-803 [1]): 5.34 µM
IC50 (MCF7 [2]): 2.26 µM
Structure (SMILES): CCCCCCCCCCCCCCCCn1cc(COC[C@@H]2OC[C@H](N)[C@H]2O)nn1
IC50 [3]: 6.31 µM

IC50 (MGC-803 [1]): 8.78 µM
IC50 (MCF7 [2]): 9.64 µM
Structure (SMILES): CCCCCCCCCCn1cc(COC[C@@H]2OC[C@H](N)[C@@H]2O)nn1
IC50 [3]: 15.6 µM

IC50 (MGC-803 [1]): 5.1 µM
IC50 (MCF7 [2]): 4.84 µM
Structure (SMILES): CCCCCCCCCCCCCC[C@@H]1OC[C@H](N)[C@@H]1O [PACHASTRISSAMINE]
IC50 [3]: 6.12 µM

IC50 (MGC-803 [1]): 3.11 µM
IC50 (MCF7 [2]): 1.93 µM
Structure (SMILES): CCCCCCCCCCCCCCCCCCn1cc(COC[C@@H]2OC[C@H](N)[C@H]2O)nn1
Activity (MCF7 [4]): 39.13%
Activity (MCF7 [5]): 13.9%
Activity (MCF7 [6]): 17.16%
Activity (MCF7 [7]): 29.66%
Activity (MCF7 [8]): 36.4%
Activity (MCF7 [9]): 25.7%
Activity (MCF7 [10]): 42.05%
Activity (MCF7 [11]): 5.1%
Activity (MCF7 [12]): 33.13%
viability at 4 µM (MCF7 [13]): 38.2%
Activity (MCF7 [14]): 1.4%
Activity (MCF7 [15]): 28.66%
Activity (MCF7 [16]): 5.2%
Activity (MCF7 [17]): 1.2%
Activity (MCF7 [18]): 5.9%
Activity (MCF7 [19]): 20.04%
Activity (MCF7 [20]): 45%
Activity (MCF7 [21]): 11.6%
Activity (MCF7 [22]): 12.5%
Activity (MCF7 [23]): 27.97%
viability at 4 µM (MCF7 [24]): 71.5%
Ratio IC50 (MCF7 [25]): 2
viability at 2 µM (MCF7 [26]): 81%
viability at 8 µM (MCF7 [27]): 24%
Activity (MCF7 [28]): 30.72%
Activity (MCF7 [29]): 36.69%
Activity (MCF7 [30]): 23.8%
Activity (MCF7 [31]): 57.9%
Activity (MCF7 [32]): 4.9%
Activity (MCF7 [33]): 0.5%
Activity (MCF7 [34]): 14.1%
viability at 2 µM (MCF7 [35]): 58.5%
IC50 [3]: 2.29 µM
Ratio IC50 (MGC-803 [36]): 2
Activity (MCF7 [37]): 42.27%
Ratio IC50 [38]: 2
Activity (MCF7 [39]): 31.4%
Activity (MCF7 [40]): 48.63%
Activity (MCF7 [41]): 28.6%
Activity (MCF7 [42]): 47.4%
viability at 8 µM (MCF7 [43]): 56.3%
Activity (MCF7 [44]): 18.6%
Activity (MCF7 [45]): 19.11%
Activity (MCF7 [46]): 12%
Activity (MCF7 [47]): 5.5%
Activity (MCF7 [48]): 23.53%
